Laboratory results: US7205003B2, “Method and topical formulation for treating skin conditions associated with aging” (Dermatrends, Inc., priority 2001, dated 2007)
Where two headings read alike, the source gives them in different places.

Tests used:
[1] = cited from earlier work
[2] = cited from earlier work; remark: listed apart in the source
[3] = in vitro keratolysis study: protein released from ground adult foot callus, BioRad protein assay
Method: An in vitro keratolysis study was performed to compare the capability of glycolic acid and a base for removing protein from stratum corneum. Adult foot callus was collected, grounded and the portion between 50–80 mesh was used. Glycolic acid and sodium hydroxide solutions (concentration =0.05 M) were prepared in distilled water. Ten mg of ground callus powder was place in a test tube. Four ml of a test chemical was added to the callus and the test tube was placed in a shaker and incubated in a water bath at 37° C. for a predetermined incubation time. The incubation time periods were 10 min., 40 min, 2 hours, 4 hours, 6 hours and 24 hours. Six samples of each base were tested a total of six times each at each of the aforementioned incubation time periods.
At the end of each incubation period, the test tube was removed from the shaker and the test tube was centrifuged. The solution was removed and filtered, and the protein in the solution was then determined using a BioRad® protein assay kit.

[4] = Example 1, 0.05 M, all time points, versus glycolic acid / water control
[5] = Example 2, 0.05 M, 10 minutes, versus glycolic acid, other bases, water control

In the case of `CC(N)(CO)CO` [2-amino-2-methyl-1,3-propanediol], the “pH of Aqueous Solution” value ([1]; 0.1 m) is listed as 10.8 (0.1 m).
In the case of `CC(C)(N)CO` [2-amino-2-methyl-1-propanol], the “pH of Aqueous Solution” value ([1]; 0.1 m) is listed as 11.3 (0.1 m).
For `N` [Ammonium hydroxide], the “pH of Aqueous Solution” value ([1]; 0.001 N) is given as 10.27 and the “pH of Aqueous Solution” value ([1]; 1 N) is given as 11.27.
In the case of `N.N.O=P(O)(O)O` [Ammonium phosphate, dibasic], the “pH of Aqueous Solution” value ([1]; concentration not given) is given as about 8.
In the case of `[O]=[Ca]` [Calcium oxide], the “solubility in water, in words” value [2] is listed as “Soluble in water, Form Ca(OH)2”.
For `OCCNCCO` [Diethanolamine], the “pH of Aqueous Solution” value ([1]; 0.1 N) is given as 11.0 (0.1 N).
For `O=C(O)CO` [Glycolic Acid, reference compound], the “protein released, comparison in words” value [3, 4] was “did not show statistical differences in comparison with water” and the “protein released, comparison in words” value [3, 5] was “did not show significant differences in comparison with water”.
For `[O]=[Mg]` [Magnesium oxide], the “pH of Aqueous Solution” value ([1]; saturated solution in water) is listed as 10.3 (saturated aqueous solution).
In the case of `[Na+].[OH-]` [NaOH, Sodium hydroxide], the “amounts of protein released at 6 hours and 24 hours versus 10 minutes, 40 minutes, 2 hours and 4 hours” value ([3]; Example 1, 0.05 M) is reported as “significantly higher”, the “protein released, comparison in words” value [3, 4] is reported as “released more protein” and the “protein released, comparison in words” value [3, 5] is reported as “released more protein”. The “pH of Aqueous Solution” value ([1]; 0.05%) was 12, the “pH of Aqueous Solution” value ([1]; 0.5%) was 13 and the “pH of Aqueous Solution” value ([1]; 5%) was 14.
For `O=C([O-])CC(O)(CC(=O)[O-])C(=O)[O-].[K+].[K+].[K+]` [Potassium citrate], the “pH of Aqueous Solution” value ([1]; concentration not given) is given as about 8.5.
In the case of `CC(=O)[O-].[Na+]` [Sodium acetate, anhydrous], the “pH of Aqueous Solution” value ([1]; 0.1 N) is given as ~8.9 (0.1 N).
For `O=C([O-])[O-].[Na+].[Na+]` [Sodium carbonate anhydrous], the “pH of Aqueous Solution” value ([1]; concentration not given) is listed as about 11.6.
For `O=P([O-])([O-])O.[Na+].[Na+]` [Sodium phosphate, dibasic, anhydrous], the “pH of Aqueous Solution” value ([1]; 1.0% (1%)) is given as 9.1 (1%).
For `O.O.O=P([O-])([O-])O.[Na+].[Na+]` [Sodium phosphate, dibasic, dihydrate], the “pH of Aqueous Solution” value ([1]; concentration not given) is given as about 9.5.
For `O.O.O.O.O.O.O.O.O.O.O.O.O=P([O-])([O-])O.[Na+].[Na+]` [Sodium phosphate, dibasic, dodecahydrate], the “pH of Aqueous Solution” value ([1]; concentration not given) is given as about 9.5.
In the case of `O.O.O.O.O.O.O.O=P([O-])([O-])O.[Na+].[Na+]` [Sodium phosphate, dibasic, heptahydrate], the “pH of Aqueous Solution” value ([1]; concentration not given) is given as about 9.5.
For `O=P([O-])([O-])O.[Na+].[Na+]` [Sodium phosphate, dibasic], the “pH of Aqueous Solution” value ([1]; concentration not given) is given as about 9.5.
In the case of `O.O.O.O.O.O.O.O.O.O.O.O.O=P([O-])([O-])[O-].[Na+].[Na+].[Na+]` [Sodium phosphate, tribasic dodecahydrate], the “pH of Aqueous Solution” value ([1]; 0.1%) is given as 11.5, the “pH of Aqueous Solution” value ([1]; 0.5%) is given as 11.7 and the “pH of Aqueous Solution” value ([1]; 1.0% (1%)) is given as 11.9.
